Test results reported in patent US10662203B2, “Pyrido[2,3-b]indole compounds for the treatment and prophylaxis of bacterial infection” (Hoffmann-La Roche Inc., priority 2017, dated 2020).

Assays:
Assay in all cases: 50% growth inhibitory concentration (IC50) determination assay
Format in all cases: cell-based
Conditions in all cases: Iso-Sensitest broth, 0.098 = detection limit
A. baumannii (ATCC17978) = system: A. baumannii (ATCC17978)
Protocol: (§1) Stock compounds in DMSO were serially two-fold diluted (range from 50 to 0.097 μM final concentration) in 384 wells microtiter plates and inoculated with 49 μL the bacterial suspension in Iso-Sensitest broth medium to have a final cell concentration of ˜5×10^5 CFU/mL in a final volume/well of 50 μL/well. Microtiter plates were incubated at 35±2° C. Bacterial cell growth was determined with the measurement of optical density at λ=600 nm each 20 minutes over a time course of 16 h. […] GP-6 (Example 4.131 disclosed in WO 2012/125746 A1) was used as the reference compound in Table 6-8. […] The data of IC50 over S. aureus (ATCC29213), K. pneumoniae (ATCC10031), and A. baumannii (ATCC17978) are illustrated in Table 6.

[1] = system: K. pneumoniae (ATCC10031)
Protocol: as §1

S. aureus (ATCC29213) = system: S. aureus (ATCC29213)
Protocol: as §1

[2] = Acinetobacter baumannii, ATCC17978, A. baumannii ATCC17978

Compound	IC50 (A. baumannii (ATCC17978); [2])	IC50 ([1]; Klebsiella pneumoniae)	IC50 (S. aureus (ATCC29213); Staphylococcus aureus)	IC50 (A. baumannii (ATCC17978); A. baumannii ATCC17978)	IC50 [1]	IC50 (S. aureus (ATCC29213))
CNc1c(F)c(F)cc2c1[nH]c1ncc(-c3cnc4c(c3)c(=O)c(C(=O)O)cn4C3CCNC3)c(N3CCCC3)c12 (stereo not drawn) [Example 1.76]	0.643 µM	< 0.098 µM	< 0.098 µM			
CNc1cc(F)c(F)c2c1[nH]c1ncc(-c3cnc4c(c3)c(=O)c(C(=O)O)cn4C)c(N3CCC[C@H]3CO)c12 [Example 1.77]	0.291 µM	0.111 µM	< 0.098 µM			
CCC(Cn1cc(C(=O)O)c(=O)c2cc(-c3cnc4[nH]c5c(NC)cc(F)c(F)c5c4c3N3CCOCC3)cnc21)N(C)C (stereo not drawn) [Example 1.79]	0.173 µM	< 0.098 µM	< 0.098 µM			
CNc1cc(F)cc2c1[nH]c1ncc(-c3cnc4c(c3)c(=O)c(C(=O)O)cn4C3CCN(C)C3)c(N3CCOCC3)c12 (stereo not drawn) [Example 1.81]	0.164 µM	< 0.098 µM	< 0.098 µM			
CNc1cc(F)c(F)c2c1[nH]c1ncc(-c3cnc4c(c3)c(=O)c(C(=O)O)cn4Cc3cnco3)c(N(C)C)c12 [Example 1.87]	0.49 µM	0.122 µM	< 0.098 µM			
CNc1cc(F)c(F)c2c1[nH]c1ncc(-c3cnc4c(c3)c(=O)c(C(=O)O)cn4C3CCNC3)c(N3CCCC3)c12 (stereo not drawn) [Example 1.89]				0.315 µM	< 0.098 µM	< 0.098 µM
CNc1cc(F)c(F)c2c1[nH]c1ncc(-c3cnc4c(c3)c(=O)c(C(=O)O)cn4NC3CCOCC3)c(N(C)C)c12 [Example 1.91]	0.237 µM	0.165 µM	< 0.098 µM			
CNc1cc(F)c(F)c2c1[nH]c1ncc(-c3cnc4c(c3)c(=O)c(C(=O)O)cn4C3CC3)c(N(C)C)c12 [Example 1.95]	0.276 µM	0.282 µM	< 0.098 µM			
CNc1cc(F)c(F)c2c1[nH]c1ncc(-c3cnc4c(c3)c(=O)c(C(=O)O)cn4C)c(N3CCSCC3)c12 [Example 1.97]	0.507 µM	0.257 µM	< 0.098 µM			
CNc1cc(F)cc2c1[nH]c1ncc(-c3cnc4c(c3)c(=O)c(C(=O)O)cn4C)c(N3CCC(CN(C)C4CC4)C3)c12 (stereo not drawn) [Example 1.99]	0.771 µM	< 0.098 µM	< 0.098 µM			
CNc1cc(F)cc2c1[nH]c1ncc(-c3cnc4c(c3)c(=O)c(C(=O)O)cn4C)c(N3CCC(C)(CN(C)C)C3)c12 (stereo not drawn) [Example 1.102]	0.134 µM	< 0.098 µM	< 0.098 µM			
CCNc1cc(F)c(F)c2c1[nH]c1ncc(-c3cnc4c(c3)c(=O)c(C(=O)O)cn4C)c(N3CCC(N(C)C)C3)c12 (stereo not drawn) [Example 1.104]	0.137 µM	< 0.098 µM	< 0.098 µM			
CNc1c(F)cc(F)c2c1[nH]c1ncc(-c3cnc4c(c3)c(=O)c(C(=O)O)cn4C)c(N3CCOCC3)c12 [Example 1.105]	0.216 µM	< 0.098 µM	5.22 µM			
CNc1c(F)cc(F)c2c1[nH]c1ncc(-c3cnc4c(c3)c(=O)c(C(=O)O)cn4C3CCNC3)c(N(C)C)c12 (stereo not drawn) [Example 1.107]	0.699 µM	< 0.098 µM	0.189 µM			
CNc1cc(F)c(F)c2c1[nH]c1ncc(-c3cnc4c(c3)c(=O)c(C(=O)O)cn4C)c(N3CCC(F)(CN(C)C)C3)c12 (stereo not drawn) [Example 1.108]	0.088 µM	< 0.098 µM	< 0.098 µM			
CNc1cc(F)cc2c1[nH]c1ncc(-c3cnc4c(c3)c(=O)c(C(=O)O)cn4C)c(N3CCC(F)(CN(C)C)C3)c12 (stereo not drawn) [Example 1.109]	0.066 µM	< 0.098 µM	< 0.098 µM			
CNc1cc(F)cc2c1[nH]c1ncc(-c3cnc4c(c3)c(=O)c(C(=O)O)cn4C)c(N3CC4[C@@H](C3)OCCN4C)c12 (stereo partly drawn) [Example 1.112]	0.334 µM	< 0.098 µM	< 0.098 µM			
CNc1cc(F)cc2c1[nH]c1ncc(-c3cnc4c(c3)c(=O)c(C(=O)O)cn4C)c(N3CCC(NC4CC4)C3)c12 (stereo not drawn) [Example 1.114]	0.103 µM	< 0.098 µM	< 0.098 µM			
CNc1cc(F)c(F)c2c1[nH]c1ncc(-c3cnc4c(c3)c(=O)c(C(=O)O)cn4C)c(N3CCC(NC4CC4)C3)c12 (stereo not drawn) [Example 1.115]	0.049 µM	< 0.098 µM	< 0.098 µM			
CNc1cc(F)c(F)c2c1[nH]c1ncc(-c3cnc4c(c3)c(=O)c(C(=O)O)cn4C3CCN(C)C3)c(N(C)C)c12 (stereo not drawn) [Example 1.130]	0.132 µM	< 0.098 µM	< 0.098 µM			
CNc1cc(F)cc2c1[nH]c1ncc(-c3cnc4c(c3)c(=O)c(C(=O)O)cn4C)c(N3CCC(CNC4CC4)C3)c12 (stereo not drawn) [Example 1.136]	0.172 µM	< 0.098 µM	< 0.098 µM			
